Here are results for 42 compounds from ChEMBL document CHEMBL1138368, “Synthesis of thiazolone-based sulfonamides as inhibitors of HCV NS5B polymerase” (Bioorg Med Chem Lett, 2007).

One experiment deals with Hepatitis C virus. Nature of the experiment: Antiviral activity against HCV replicon assay. It is filed as functional, organism-based, Hepacivirus hominis. A general note: A replicon is a self-replicating genome or part of one, used to study replication in cells.
The nature of experiment [1]: Inhibition of HCV NS5B polymerase […]. Also on record: species or system Hepacivirus hominis.

The structures appear in SMILES notation. pEC50, pIC50: −log10 of the molar value. Some results are limits rather than exact numbers.

The pEC50 is the negative decadic logarithm of the EC50, by convention in mol/L. Higher therefore signals a low EC50. Usually pIC50 stands for the IC50 on a negative log10 scale, so that one unit is a factor of ten. In the case of `CCc1ccc(/C=C2\SC(NS(=O)(=O)c3cccs3)=NC2=O)o1`, in the experiment on Hepatitis C virus, the pEC50 is 4.40. Further, the pIC50 in experiment [1] is 5.10.

Take `CCc1ccc(/C=C2\SC(NS(=O)(=O)c3ccccc3N)=NC2=O)o1`: the pEC50 in the experiment on Hepatitis C virus was 4.57. Moreover, the pIC50 in experiment [1] was 4.96.

As for `Cc1ccc(S(=O)(=O)NC2=NC(=O)C(Cc3ccco3)S2)cc1` (stereo not drawn), the pEC50 in the experiment on Hepatitis C virus is 3.70. The compound also had a pIC50 in experiment [1] of 4.13.

Take `Cc1ccc(S(=O)(=O)NC2=NC(=O)C(Cc3ccc(Br)o3)S2)cc1` (stereo not drawn): the pEC50 in the experiment with Hepatitis C virus is 4.19. The same compound showed a pIC50 in experiment [1] of 4.40.

On to `CCc1ccc(CC2SC(NS(=O)(=O)c3ccc(C)cc3)=NC2=O)o1` (stereo not drawn), for which the pEC50 in the experiment with Hepatitis C virus was 4.48. For the same compound, the pIC50 in experiment [1] was 5.14.

For `CCc1ccc(/C=C2\SC(NS(=O)(=O)c3ccccc3[N+](=O)[O-])=NC2=O)o1`, in the experiment with Hepatitis C virus, the pEC50 was 4.05. In experiment [1], this compound gave a pIC50 of 4.74.

In the experiment on Hepatitis C virus, `Cc1ccc(S(=O)(=O)NC2=NC(=O)/C(=C/C=C/c3ccco3)S2)cc1` gave a pEC50 of 4.26. This compound also showed a pIC50 in experiment [1] of 5.30.

As for `Cc1ccc(S(=O)(=O)NC2=NC(=O)/C(=C/C=C/c3ccccn3)S2)cc1`, the pEC50 in the experiment on Hepatitis C virus was 4.46. In experiment [1], this compound showed a pIC50 of 6.22.

In the experiment on Hepatitis C virus, `Cc1ccc(S(=O)(=O)NC2=NC(=O)/C(=C/c3ccc(-c4ccccc4)o3)S2)cc1` had a pEC50 of 4.26. Also, in experiment [1], the pIC50 is 5.26.

Compound `Cc1ccc(S(=O)(=O)NC2=NC(=O)/C(=C/c3cccs3)S2)cc1` had a pEC50 in the experiment with Hepatitis C virus of 4.10. The same compound gave a pIC50 in experiment [1] of 4.92.

In the experiment with Hepatitis C virus, `Cc1ccc(S(=O)(=O)NC2=NC(=O)/C(=C/c3cc(C)c(Cl)s3)S2)cc1` showed a pEC50 of 3.70. In experiment [1], this compound had a pIC50 of 5.00.

In the experiment with Hepatitis C virus, `Cc1ccc(S(=O)(=O)NC2=NC(=O)/C(=C/c3ccc(-c4nc(C(C)(C)C)cs4)cc3)S2)cc1` showed a pEC50 of 5.05. Also, the pIC50 in experiment [1] was 5.31.

Consider `Cc1ccc(S(=O)(=O)NC2=NC(=O)/C(=C/c3ccc(-n4cccn4)cc3)S2)cc1`, for which the negative-log EC50 (pEC50) in the experiment on Hepatitis C virus was 4.15. The pIC50 in experiment [1] was 5.00.

Compound `Cc1ccc(S(=O)(=O)NC2=NC(=O)/C(=C/c3ccco3)S2)cc1` showed a pEC50 in the experiment on Hepatitis C virus of 4.22. Also, the pIC50 in experiment [1] was 4.96.

`Cc1ccc(S(=O)(=O)NC2=NC(=O)/C(=C/c3ccc(Br)o3)S2)cc1` had a pEC50 in the experiment with Hepatitis C virus of 4.30. This compound also had a pIC50 in experiment [1] of 5.57.

`CCc1ccc(/C=C2\SC(NS(=O)(=O)c3ccc(C)cc3)=NC2=O)o1` had a pEC50 with Hepatitis C virus of 4.60. Moreover, in experiment [1], the pIC50 was 5.85.

Consider `CCCCCCN(C1=NC(=O)/C(=C/c2ccc(CC)o2)S1)S(=O)(=O)c1ccc(C)cc1`, for which the pEC50 with Hepatitis C virus was 4.15. Moreover, in experiment [1], the pIC50 is < 4.00.

In the experiment on Hepatitis C virus, `CCCCCCCN(C1=NC(=O)/C(=C/c2ccc(CC)o2)S1)S(=O)(=O)c1ccc(C)cc1` gave a pEC50 of 4.05. The pIC50 in experiment [1] is < 4.00.

Compound `Cc1ccc(C(=O)NC2=NC(=O)/C(=C/c3ccc(C)o3)S2)cc1` showed a pEC50 with Hepatitis C virus of 4.22. In experiment [1], the pIC50 is 4.80.

In the experiment on Hepatitis C virus, `CCc1ccc(/C=C2\SC(NS(=O)(=O)c3ccccc3NC(C)=O)=NC2=O)o1` showed a pEC50 of 3.70. In experiment [1], this compound gave a pIC50 of 4.47.

In turn, `Cc1ccc(S(=O)(=O)NC2=NC(=O)/C(=C/c3ccc(C)s3)S2)cc1` had a pEC50 in the experiment on Hepatitis C virus of 4.15. For the same compound, the pIC50 in experiment [1] is 4.85.

For the compound `Cc1ccc(S(=O)(=O)NC2=NC(=O)/C(=C/c3ccc(C)o3)S2)cc1`, the pIC50 in experiment [1] is 4.96.

In the case of `CCc1ccc(/C=C2\SC(NS(=O)(=O)c3ccc([N+](=O)[O-])cc3)=NC2=O)o1`, in the experiment on Hepatitis C virus, the pEC50 is 3.70. This compound also had a pIC50 in experiment [1] of 5.49.

Regarding `Cc1ccc(C(=O)NC2=NC(=O)/C(=C/c3cccs3)S2)cc1`, the pEC50 in the experiment on Hepatitis C virus is 4.00. This compound also gave a pIC50 in experiment [1] of 4.48.

Regarding `CCc1ccc(/C=C2\SC(NC(=O)c3ccc(C)cc3)=NC2=O)o1`, in the experiment with Hepatitis C virus, the pEC50 is 3.70. This compound showed a pIC50 in experiment [1] of 4.89.

Regarding `Cc1ccc(S(=O)(=O)NC2=NC(=O)/C(=C/c3ccc([N+](=O)[O-])s3)S2)cc1`, the pEC50 in the experiment on Hepatitis C virus is 5.15. The pIC50 in experiment [1] is 5.38.

The compound `Cc1ccc(C(=O)NC2=NC(=O)/C(=C/c3ccc(-c4nccs4)o3)S2)cc1` showed a pEC50 with Hepatitis C virus of 3.92. The compound further had a pIC50 in experiment [1] of 4.36.

`Cc1ccc(C(=O)NC2=NC(=O)/C(=C/c3ccc(-c4ccc(-c5csnn5)cc4)o3)S2)cc1`: in the experiment with Hepatitis C virus, the pEC50 was 4.15. Moreover, the pIC50 in experiment [1] was 4.96.

Take `CCN(CC)c1ccc(/C=C2\SC(NS(=O)(=O)c3ccc(C)cc3)=NC2=O)cc1`: the pEC50 with Hepatitis C virus is 4.05. Further, in experiment [1], the pIC50 is < 4.00.

`Cc1ccc(S(=O)(=O)NC2=NC(=O)/C(=C/c3ccc(-c4csnn4)cc3)S2)cc1`: the negative logarithm of the EC50 (pEC50) with Hepatitis C virus was 4.70. This compound also had a pIC50 in experiment [1] of 5.85.

`Cc1ccc(S(=O)(=O)NC2=NC(=O)/C(=C/c3ccc(-n4cncn4)cc3)S2)cc1` gave a pEC50 in the experiment with Hepatitis C virus of 4.00. The compound further showed a pIC50 in experiment [1] of 4.49.

In the experiment on Hepatitis C virus, `Cc1ccc(S(=O)(=O)NC2=NC(=O)/C(=C/c3ccc(-n4ccnc4)cc3)S2)cc1` showed a pEC50 of 4.22. In addition, the pIC50 in experiment [1] was < 4.00.

In the experiment with Hepatitis C virus, `Cc1ccc(S(=O)(=O)NC2=NC(=O)/C(=C/c3ccc(N4CCCC4)cc3)S2)cc1` showed a pEC50 of 4.60. Besides, the pIC50 in experiment [1] is 5.85.

On to `CCc1ccc(/C=C2\SC(NS(=O)(=O)c3ccc(C(F)(F)F)cc3)=NC2=O)o1`, for which the pEC50 in the experiment with Hepatitis C virus is 4.52. This compound had a pIC50 in experiment [1] of 5.49.

As to `Cc1ccc(S(=O)(=O)NC2=NC(=O)C(CCCc3ccccn3)S2)cc1` (stereo not drawn), in the experiment with Hepatitis C virus, the pEC50 is 3.74. Further, the pIC50 in experiment [1] was < 4.00.

`CCCCCN(C1=NC(=O)/C(=C/c2ccc(CC)o2)S1)S(=O)(=O)c1ccc(C)cc1`: the pEC50 with Hepatitis C virus is 4.26. Moreover, in experiment [1], the pIC50 was < 4.00.

Compound `Cc1ccc(S(=O)(=O)NC2=NC(=O)/C(=C/c3ccc(I)o3)S2)cc1` showed a pEC50 with Hepatitis C virus of 4.42. This compound also gave a pIC50 in experiment [1] of 5.55.

For `Cc1ccc(S(=O)(=O)NC2=NC(=O)/C(=C/c3cc(C)c(C)o3)S2)cc1`, the pEC50 in the experiment with Hepatitis C virus is 3.70. The compound also had a negative-log IC50 (pIC50) in experiment [1] of 5.49.

In the experiment with Hepatitis C virus, `Cc1ccc(S(=O)(=O)NC2=NC(=O)C(Cc3ccc(I)o3)S2)cc1` (stereo not drawn) showed a pEC50 of 4.40. In experiment [1], this compound had a pIC50 of 4.82.

Turning to `CCCCN(C1=NC(=O)/C(=C/c2ccc(CC)o2)S1)S(=O)(=O)c1ccc(C)cc1`, in the experiment on Hepatitis C virus, the pEC50 is 4.48. For the same compound, the pIC50 in experiment [1] is < 4.00.

`Cc1ccc(S(=O)(=O)NC2=NC(=O)/C(=C/c3ccc(N4CCOCC4)cc3)S2)cc1`: the pEC50 with Hepatitis C virus was 3.74. Moreover, the pIC50 in experiment [1] is 4.92.

With `Cc1ccc(C(=O)NC2=NC(=O)/C(=C/c3ccc(-c4[nH]cnc4C)o3)S2)cc1`, the pEC50 in the experiment on Hepatitis C virus was 3.66. In addition, the pIC50 in experiment [1] is < 4.00.
